Structures can show the parent of a compound that is named as a salt.
Assays:
[1] = test system: full length SMN2 minigene mRNA (HEK293H cells stably transfected with the SMN2-A minigene construct); experiment: RT-qPCR assay for SMN2 minigene pre-mRNA splicing in cultured cells; type: cell-based; conditions: Homo sapiens, HEK293-H, 24 hours, 7-point concentration curve, concentration giving 1.5-fold FL SMN2mini mRNA vs vehicle, read-out: EC1.5x minigene (EC1.5x concentration for production of full length SMN2 minigene mRNA)
Protocol: The reverse transcription-quantitative PCR-based (RT-qPCR) assay is used to quantify the level of the full length SMN2 minigene (referred to herein by the term “FL SMN2mini”) mRNA containing SMN2 exon 7 in a HEK293H cell line stably transfected with said minigene and treated with a test compound. Materials used and respective sources are listed below in Table 1.
The SMN2-A minigene construct was prepared as described in International Patent Application WO2009/151546A1 page 145 paragraph [00400] to page 147 paragraph [00412] (incl. FIG. 1 and FIG. 3 therein).
HEK293H cells stably transfected with the SMN2-A minigene construct (10,000 cells/well) are seeded in 200 μL of cell culture medium (DMEM plus 10% FBS, with 200 μg/mL hygromycin) in 96-well flat-bottom plates and the plate is immediately swirled to ensure proper dispersal of cells and the formation of an even monolayer of cells. Cells are allowed to attach for 6 hours. Test compounds are serially diluted 3.16-fold in 100% DMSO to generate a 7-point concentration curve. A solution of test compound (1 μL, 200× in DMSO) is added to each cell-containing well and the plate is incubated for 24 hours in a cell culture incubator (37° C., 5% CO2, 100% relative humidity). 2 replicates are prepared for each test compound concentration. The cells are then lysed in the Cells-To-Ct lysis buffer and the lysate is stored at −80° C.
Full length SMN2-A minigene and GAPDH mRNA are quantified using the primers and probes referenced in Table 2. Primer SMN Forward A (SEQ ID NO.1) hybridizes to a nucleotide sequence in exon 7 (nucleotide 22 to nucleotide 40), primer SMN Reverse A (SEQ ID NO.2) hybridizes to a nucleotide sequence in the coding sequence of Firefly luciferase, SMN Probe A (SEQ ID NO.3) hybridizes to a nucleotide sequence in exon 7 (nucleotide 50 to nucleotide 54) and exon 8 (nucleotide 1 to nucleotide 21). The combination of these three oligonucleotides detects only SMN1 or SMN2 minigenes (RT-qPCR) and will not detect endogenous SMN1 or SMN2 genes.
The SMN forward and reverse primers are used at final concentrations of 0.4 μM. The SMN probe is used at a final concentration of 0.15 μM. The GAPDH primers are used at final concentrations of 0.2 μM and the probe at 0.15 μM.
The SMN2-minigene GAPDH mix (15 μL total volume) is prepared by combining 7.5 of 2×RT-PCR buffer, 0.4 μL of 25×RT-PCR enzyme mix, 0.75 μL of 20× GAPDH primer-probe mix, […] of water, 2 μL of 10-fold diluted cell lysate, 0.06 μL of 100 μM SMN forward primer, 0.06 μL of 100 μM SMN reverse primer, and 0.225 μL of 100 μM SMN probe.
PCR is carried out at the following temperatures for the indicated time: Step 1: 48° C. (15 min); Step 2: 95° C. (10 min); Step 3: 95° C. (15 sec); Step 4: 60° C. (1 min); then repeat Steps 3 and 4 for a total of 40 cycles.
Each reaction mixture contains both SMN2-A minigene and GAPDH primers/probe sets (multiplex design), allowing simultaneous measurement of the levels of two transcripts.
The increase in the abundance of the FL SMN2mini mRNA relative to that in cells treated with vehicle control is determined from real-time PCR data using a modified ΔΔCt method (as described in Livak and Schmittgen, Methods, 2001, 25:402-8). The amplification efficiency E is calculated from the slope of the amplification curve for FL SMN2mini and GAPDH individually. The abundance of FL SMN2mini and GAPDH mRNA are then calculated as (1+E)^−Ct, where Ct is the threshold value for each amplicon. The abundance of FL SMN2mini mRNA is normalized to GAPDH mRNA abundance. The normalized FL SMN2mini mRNA abundance from test compound-treated samples is then divided by normalized FL SMN2mini mRNA abundance from vehicle-treated cells to determine the level of FL SMN2mini mRNA relative to vehicle control. […]

[2] = test system: SMN protein in SMA patient fibroblast cells (GM03813); experiment: SMN protein assay (HTRF) in cultured cells; type: cell-based; conditions: Homo sapiens, SMA Type 1 patient fibroblasts, 48 hours; for EC (1.5-fold): 7-point concentration curve, concentration giving 1.5 times SMN protein vs vehicle, read-out: EC1.5x SMN protein (EC1.5x concentration for SMN protein expression); for maximal fold induction: fold increase relative to vehicle control, read-out: Max. fold increase of SMN protein
Protocol: The SMN HTRF (homogeneous time resolved fluorescence) assay is used to quantify the level of SMN protein in SMA patient fibroblast cells treated with test compounds. Materials used and respective sources are listed below in Table 4.
Cells are thawed and cultured in DMEM-10% FBS for 72 hours. Cells are trypsinized, counted and re-suspended to a concentration of 25,000 cells/mL in DMEM-10% FBS. The cell suspensions are plated at 5,000 cells per well in a 96 well microtiter plate and incubated for 3 to 5 hours. Test compounds are serially diluted 3.16-fold in 100% DMSO to generate a 7-point concentration curve. 1 μL of test compound solution is transferred to cell-containing wells and cells are incubated for 48 hours in a cell culture incubator (37° C., 5% CO2, 100% relative humidity). Triplicate samples are set up for each test compound concentration. After 48 hours, the supernatant is removed from the wells and 25 μL of the RIPA lysis buffer, containing protease inhibitors, is added to the wells and incubated with shaking at room temperature for 1 hour. 25 μL of the diluent is added and then 35 μL of the resulting lysate is transferred to a 384-well plate, where each well contains 5 μL of the antibody solution (1:100 dilution of anti-SMN d2 and anti-SMN cryptate in SMN reconstitution buffer). The plate is centrifuged for 1 minute to bring the solution to the bottom of the wells, then incubated overnight at room temperature. Fluorescence for each well of the plate at 665 nm and 620 nm is measured on an EnVision multilabel plate reader (Perkin-Elmer).
The normalized fluorescence signal is calculated for each sample, Blank and vehicle control well by dividing the signal at 665 nm by the signal at 620 nm. Normalizing the signal accounts for possible fluorescence quenching due to the matrix effect of the lysate. The ΔF value (a measurement of SMN protein abundance as a percent value) for each sample well is calculated by subtracting the normalized average fluorescence for the Blank control wells from the normalized fluorescence for each sample well, then dividing this difference by the normalized average fluorescence for the Blank control wells and multiplying the resulting value by 100. The ΔF value for each sample well represents the SMN protein abundance from test compound-treated samples. The ΔF value for each sample well is divided by the ΔF value for the vehicle control wells to calculate the fold increase in SMN protein abundance relative to the vehicle control. Table 5 provides EC1.5× concentrations for SMN protein expression that was obtained from the 7-point concentration data generated according to the above procedure for particular compounds of the present invention.
Table 6 provides the maximum fold increase of SMN protein that was obtained from the 7-point concentration data generated according to the above procedure for particular compounds of the present invention

SMILES	EC (1.5-fold) [1] [µM]	EC (1.5-fold) [2] [µM]	maximal fold induction [2]
Cc1cn2cc(NC(=O)c3ccc(N4CCNCC4)cc3F)ncc2n1 [Example 1, 2-fluoro-N-(2-methylimidazo[1,2-a]pyrazin-6-yl)-4-piperazin-1-ylbenzamide hydrochloride]	0.0374	0.087	1.9
Cc1cn2cc(NC(=O)c3ccc(N4CCNCC4)cc3)ncc2n1 [Example 2, N-(2-methylimidazo[1,2-a]pyrazin-6-yl)-4-piperazin-1-ylbenzamide hydrochloride]	1.05	2.25	1.74
CCOc1cc(N2CCN3CCC[C@H]3C2)ccc1C(=O)Nc1cn2cc(C)nc2cn1 [Example 3, 4-[(8aS)-3,4,6,7,8,8a-hexahydro-1H-pyrrolo[1,2-a]pyrazin-2-yl]-2-ethoxy-N-(2-methylimidazo[1,2-a]pyrazin-6-yl)benzamide]	0.102	0.409	1.83
CCOc1cc(N2CCN[C@@H](C)C2)ccc1C(=O)Nc1cn2cc(C)nc2cn1 [Example 4, 2-ethoxy-N-(2-methylimidazo[1,2-a]pyrazin-6-yl)-4-[(3S)-3-methylpiperazin-1-yl]benzamide]	0.0263	0.122	1.92
CCOc1cc(N2CCN[C@H](C)C2)ccc1C(=O)Nc1cn2cc(C)nc2cn1 [Example 5, 2-ethoxy-N-(2-methylimidazo[1,2-a]pyrazin-6-yl)-4-[(3R)-3-methylpiperazin-1-yl]benzamide]	0.041	0.185	1.9
CCOc1cc(N2CCN3CCC[C@@H]3C2)ccc1C(=O)Nc1cn2cc(C)nc2cn1 [Example 6, 4-[(8aR)-3,4,6,7,8,8a-hexahydro-1H-pyrrolo[1,2-a]pyrazin-2-yl]-2-ethoxy-N-(2-methylimidazo[1,2-a]pyrazin-6-yl)benzamide]	0.101	0.428	1.71
Cc1cn2cc(NC(=O)c3ccc(N4CCN5CCC[C@@H]5C4)cc3F)ncc2n1 [Example 7, 4-[(8aR)-3,4,6,7,8,8a-hexahydro-1H-pyrrolo[1,2-a]pyrazin-2-yl]-2-fluoro-N-(2-methylimidazo[1,2-a]pyrazin-6-yl)benzamide]	0.0484	0.872	1.64
Cc1cn2cc(NC(=O)c3ccc(N4CCN5CCC[C@H]5C4)cc3F)ncc2n1 [Example 8, 4-[(8aS)-3,4,6,7,8,8a-hexahydro-1H-pyrrolo[1,2-a]pyrazin-2-yl]-2-fluoro-N-(2-methylimidazo[1,2-a]pyrazin-6-yl)benzamide]	0.0407	0.351	1.77
CCOc1cc(N2CCCNCC2)ccc1C(=O)Nc1cn2cc(C)nc2cn1 [Example 9, 4-(1,4-diazepan-1-yl)-2-ethoxy-N-(2-methylimidazo[1,2-a]pyrazin-6-yl)benzamide]	0.098	0.345	1.73
CCOc1cc(N2C[C@@H](C)N[C@@H](C)C2)ccc1C(=O)Nc1cn2cc(C)nc2cn1 [Example 10, 4-[(3S,5R)-3,5-dimethylpiperazin-1-yl]-2-ethoxy-N-(2-methylimidazo[1,2-a]pyrazin-6-yl)benzamide]	0.0383	0.13	1.91
Cc1cn2cc(NC(=O)c3ccc(N4CCN[C@H](C)C4)cc3F)nc(C)c2n1 [Example 11, N-(2,8-dimethylimidazo[1,2-a]pyrazin-6-yl)-2-fluoro-4-[(3R)-3-methylpiperazin-1-yl]benzamide]	0.0164	0.0522	1.8
CCOc1cc(N2CCN3CCC[C@H]3C2)ccc1C(=O)Nc1cn2cc(C)nc2c(C)n1 [Example 12, 4-[(8aS)-3,4,6,7,8,8a-hexahydro-1H-pyrrolo[1,2-a]pyrazin-2-yl]-N-(2,8-dimethylimidazo[1,2-a]pyrazin-6-yl)-2-ethoxybenzamide]	0.145	1.73	1.56
Cc1cn2cc(NC(=O)c3ccc(N4CCN5CCC[C@H]5C4)cc3F)nc(C)c2n1 [Example 13, 4-[(8aS)-3,4,6,7,8,8a-hexahydro-1H-pyrrolo[1,2-a]pyrazin-2-yl]-N-(2,8-dimethylimidazo[1,2-a]pyrazin-6-yl)-2-fluorobenzamide]	0.0262	0.109	1.66
Cc1cn2cc(NC(=O)c3c(F)cc(N4CCN[C@H](C)C4)cc3F)nc(C)c2n1 [Example 14, N-(2,8-dimethylimidazo[1,2-a]pyrazin-6-yl)-2,6-difluoro-4-[(3R)-3-methylpiperazin-1-yl]benzamide]	0.0097	0.124	1.61
CCOc1cc(N2CCN[C@H](C)C2)ccc1C(=O)Nc1cn2cc(C)nc2c(C)n1 [Example 15, N-(2,8-dimethylimidazo[1,2-a]pyrazin-6-yl)-2-ethoxy-4-[(3R)-3-methylpiperazin-1-yl]benzamide]	0.038	0.303	1.72

From US9975900B2, “Substituted imidazo[1,2-α]pyrazines for treating spinal muscular atrophy” (Hoffmann-La Roche Inc., priority 2014, dated 2018)
